For assay [1], the target named is Estrogen receptor (Rattus norvegicus) (UniProt P06211+Q62986).
The species entered for assay [2] is Rattus norvegicus.
Assay [3] has as its system Rattus norvegicus. Nature of the assay: In vivo antifertility potency in rats at 200 ug/kg/day. Type of assay: functional.

SMILES strings stand for the structures.

As for `CC(=O)[C@H]1CC[C@H]2[C@@H]3CCc4cc(O)ccc4[C@H]3CC[C@]12C`, in assay [1], the Estrogenic potency is 0.01. Moreover, in the assay filed under Rattus norvegicus [2], the Antifertility potency is given as under 4.

In assay [1], `CC[C@H]1CC[C@H]2[C@@H]3C(C)Cc4cc(O)ccc4[C@H]3CC[C@]12C` (stereo partly drawn) gave an Estrogenic potency of 15. This compound displayed an Antifertility potency in the assay filed under Rattus norvegicus [2] of under 200. `COc1ccc2c(c1)CCC1C2CCC2(C)C1C=C[C@@]2(O)c1ccccc1` (stereo partly drawn): the Estrogenic potency in assay [1] amounted to 0.14. The compound further displayed an Antifertility potency in the assay with Rattus norvegicus [3] of under 10.

As for `CC(F)(F)[C@H]1CC[C@H]2[C@@H]3CCc4cc(O)ccc4[C@H]3CC[C@]12C`, the Estrogenic potency in assay [1] turned out to be 0.09. For the same compound, the Antifertility potency in the assay listed under Rattus norvegicus [2] is given as under 20. In turn, `CC[C@H]1CC[C@H]2[C@@H]3CCc4cc(O)ccc4[C@H]3C(=O)C[C@]12C` yielded an Antifertility potency in the assay listed under Rattus norvegicus [2] of over 1000. The compound `C[C@]12CC[C@@H]3c4ccc(O)cc4CC[C@H]3[C@@H]1CC/C2=N\N` had an Estrogenic potency in assay [1] of 1.6. Further, the Antifertility potency in the assay filed under Rattus norvegicus [2] is reported as under 10. The like results for `C[C@]12CC[C@@H]3c4ccc(O)cc4CC[C@H]3[C@@H]1CC/C2=N\Nc1ccccn1` were, in that order, 0.1 and under 4. As to `[2H]C([2H])=C1CC[C@H]2[C@@H]3CCc4cc(O)ccc4[C@H]3CC[C@]12C`, in the assay listed under Rattus norvegicus [2], the Antifertility potency is given as 67. Turning to `C[C@]12CC[C@@H]3c4ccc(O)cc4CC[C@H]3[C@@H]1CC[C@@H]2C#N`, in assay [1], the Estrogenic potency was found to be 0.05. In the assay listed under Rattus norvegicus [2], this compound registered an Antifertility potency of under 10. `C=C1C[C@]2(C)[C@@H](CC)CC[C@H]2[C@@H]2CCc3cc(O)ccc3[C@@H]12` yielded an Estrogenic potency in assay [1] of 64. For the same compound, the Antifertility potency in the assay listed under Rattus norvegicus [2] came to 400. For `CCC[C@H]1CC[C@H]2[C@@H]3CCc4cc(O)ccc4[C@H]3CC[C@]12C`, the Estrogenic potency in assay [1] was 0.8. In addition, in the assay listed under Rattus norvegicus [2], the Antifertility potency was 20. With `C#C[C@H]1CC[C@H]2[C@@H]3CCc4cc(O)ccc4[C@H]3CC[C@]12C`, in assay [1], the Estrogenic potency amounted to 0.07. Further, the Antifertility potency in the assay filed under Rattus norvegicus [2] is reported as under 10.

In turn, `CC[Si](C#C[C@H]1CC[C@H]2[C@@H]3CCc4cc(O)ccc4[C@H]3CC[C@]12C)(CC)CC` had an Estrogenic potency in assay [1] of 0.04. Further, the Antifertility potency in the assay filed under Rattus norvegicus [2] is under 4. Regarding `CC[C@H]1CC[C@H]2[C@@H]3CCc4cc(O)ccc4[C@H]3[C@@H](OC)C[C@]12C`, in assay [1], the Estrogenic potency was 37. The compound further gave an Antifertility potency in the assay listed under Rattus norvegicus [2] of over 2000. Consider `CC12CCC3c4ccc(O)cc4CCC3C1C=CC2C#N` (stereo not drawn), for which, in assay [1], the Estrogenic potency was under 0.1. This compound had an Antifertility potency in the assay with Rattus norvegicus [3] of under 4. Consider `COc1ccc2c(c1)CC[C@@H]1[C@@H]2CC[C@@]2(C)[C@H]1CC[C@@]2(O)c1ccccc1`, for which the Estrogenic potency in assay [1] stood at 0.69. This compound registered an Antifertility potency in the assay listed under Rattus norvegicus [2] of 10.

In assay [1], `C=C1CCC2C3C=Cc4cc(O)ccc4C3CCC12C` (stereo not drawn) displayed an Estrogenic potency of 0.04. Also, the Antifertility potency in the assay filed under Rattus norvegicus [2] is under 5.

In the case of `CC[C@H]1CC[C@H]2[C@@H]3CCc4cc(O)ccc4[C@H]3CC[C@]12C` (stereo in doubt; 8i) [listing 1 of 2 here], the Antifertility potency in the assay filed under Rattus norvegicus [2] is recorded as under 40. Consider `CC[C@H]1CC[C@H]2[C@@H]3[C@H](O)Cc4cc(O)ccc4[C@H]3CC[C@]12C`, for which, in assay [1], the Estrogenic potency is 0.04. Besides, in the assay filed under Rattus norvegicus [2], the Antifertility potency is listed as under 10. Compound `C[C@]12CC[C@@H]3c4ccc(O)cc4CC[C@H]3[C@@H]1CC/C2=C\C=O` returned an Estrogenic potency in assay [1] of 0.05. Besides, the Antifertility potency in the assay filed under Rattus norvegicus [2] turned out to be 10.

Turning to `CC[C@H]1CC[C@H]2[C@@H]3CCc4cc(O)ccc4[C@H]3[C@@](C)(O)C[C@]12C`, the Estrogenic potency in assay [1] was found to be 0.05. In the assay listed under Rattus norvegicus [2], this compound gave an Antifertility potency of under 20. In assay [1], `C/C=C1\CC[C@H]2[C@@H]3CCc4cc(O)ccc4[C@H]3CC[C@]12C` registered an Estrogenic potency of 0.3. Also, the Antifertility potency in the assay listed under Rattus norvegicus [2] is on record as 10.

As to `CC[C@H]1CC[C@H]2[C@@H]3CCc4cc(O)ccc4[C@H]3CC[C@]12C` (stereo in doubt; 8i) [listing 2 of 2 here], in assay [1], the Estrogenic potency came to 0.16. In assay [1], `COc1ccc2c(c1)CC[C@@H]1[C@@H]2CC[C@]2(C)[C@@H](c3ccccc3)CC[C@@H]12` had an Estrogenic potency of under 0.1. Besides, in the assay filed under Rattus norvegicus [2], the Antifertility potency is given as under 4. In turn, `CCC/C=C1\CC[C@H]2[C@@H]3CCc4cc(O)ccc4[C@H]3CC[C@]12C` came in with an Estrogenic potency in assay [1] of 0.2. For the same compound, the Antifertility potency in the assay listed under Rattus norvegicus [2] is recorded as under 20.

On to `CC/C=C1\CC[C@H]2[C@@H]3CCc4cc(O)ccc4[C@H]3CC[C@]12C`, for which the Estrogenic potency in assay [1] was found to be 0.4. The compound also gave an Antifertility potency in the assay filed under Rattus norvegicus [2] of under 20. Turning to `C#C[C@]1(O)CC[C@H]2[C@@H]3CCc4cc(O)ccc4[C@H]3[C@@H](OC)C[C@@]21C` [MOXESTROL], the Estrogenic potency in assay [1] was determined as 2000. Besides, the Antifertility potency in the assay filed under Rattus norvegicus [2] worked out at 1000. The matching figures for `C=C(C)[C@H]1CC[C@H]2[C@@H]3CCc4cc(O)ccc4[C@H]3CC[C@]12C`: 0.08 and under 10. As for `C=C[C@H]1CC[C@H]2[C@@H]3CCc4cc(O)ccc4[C@H]3CC[C@]12C`, the Estrogenic potency in assay [1] was 0.26. In the assay filed under Rattus norvegicus [2], this compound came in with an Antifertility potency of 10. Compound `CCCC[C@H]1CC[C@H]2[C@@H]3CCc4cc(O)ccc4[C@H]3CC[C@]12C` yielded an Estrogenic potency in assay [1] of 0.4. The Antifertility potency in the assay listed under Rattus norvegicus [2] is under 10.

The compound `C[C@H]1CC[C@H]2[C@@H]3CCc4cc(O)ccc4[C@H]3CC[C@]12C` came in with an Estrogenic potency in assay [1] of 0.3. Further, in the assay filed under Rattus norvegicus [2], the Antifertility potency came to 20. On to `C[C@]12CC[C@@H]3c4ccc(O)cc4CC[C@H]3[C@@H]1CC[C@@H]2CO`, for which the Estrogenic potency in assay [1] is 0.03. Besides, the Antifertility potency in the assay listed under Rattus norvegicus [2] was under 110.

In assay [1], `C=C1CC[C@H]2[C@@H]3CCc4cc(O)ccc4[C@H]3[C@H](O)C[C@]12C` displayed an Estrogenic potency of 0.02. Besides, the Antifertility potency in the assay listed under Rattus norvegicus [2] is on record as 10. The compound `C/C=C1/CC[C@H]2[C@@H]3CCc4cc(O)ccc4[C@H]3[C@H](O)C[C@]12C` gave an Estrogenic potency in assay [1] of 0.04. This compound also gave an Antifertility potency in the assay listed under Rattus norvegicus [2] of under 7.

On to `CC[Si](CC)(CC)CC[C@H]1CC[C@H]2[C@@H]3CCc4cc(O)ccc4[C@H]3CC[C@]12C`, for which the Estrogenic potency in assay [1] is 0.27. The compound further came in with an Antifertility potency in the assay listed under Rattus norvegicus [2] of 10. Compound `C[C@]12CC[C@@H]3c4ccc(O)cc4CC[C@H]3[C@@H]1CCC2=S` had an Estrogenic potency in assay [1] of 2.4.

As for `CC[Si](C#C[C@]1(O)CC[C@H]2[C@@H]3CCc4cc(O)ccc4[C@H]3CC[C@@]21C)(CC)CC`, the Estrogenic potency in assay [1] is 37. In addition, the Antifertility potency in the assay filed under Rattus norvegicus [2] was 600. In assay [1], `C[C@]12CC[C@@H]3c4ccc(O)cc4CC[C@H]3[C@@H]1CC/C2=N\O` registered an Estrogenic potency of 0.28. This compound also came in with an Antifertility potency in the assay with Rattus norvegicus [3] of 4. The compound `C=C1CC[C@H]2[C@@H]3[C@H](O)Cc4cc(O)ccc4[C@H]3CC[C@]12C` showed an Estrogenic potency in assay [1] of 0.1. The compound also had an Antifertility potency in the assay listed under Rattus norvegicus [2] of under 20.

The values above are taken from ChEMBL document CHEMBL1124539, “17-Desoxy estrogen analogues” (J Med Chem, 1989).
